Measurements as given in PubChem BioAssay (NCI).
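48-hour exposure; five concentrations; linearly interpolated endpoints. TGI: concentration producing complete growth inhibition.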

Assays:
Assay in all cases: growth of human tumour cells (NCI), 48 h
[1] = system: MOLT-4 leukemia
[2] = system: HOP-62 NSCLC
[3] = system: KM20L2 colon
[4] = system: SF-295 CNS
[5] = system: SN12C renal
[6] = system: UACC-62 melanoma
[7] = system: HCT-116 colon
[8] = system: SK-MEL-28 melanoma
[9] = system: COLO 205 colon
[10] = system: TK-10 renal
[11] = system: NCI-H226 lung
[12] = system: SK-MEL-2 melanoma
[13] = system: LXFL 529 NSCLC
[14] = system: HCC-2998 colon
[15] = system: DMS 273 small cell lung
[16] = system: DMS 114 small cell lung
[17] = system: OVCAR-4 ovarian
[18] = system: SNB-75 CNS
[19] = system: M14 melanoma
[20] = system: NCI-H460 lung
[21] = system: SF-268 CNS
[22] = system: SR leukemia
[23] = system: SW-620 colon
[24] = system: SNB-78 CNS
[25] = system: IGROV1 ovarian
[26] = system: A549 NSCLC
[27] = system: KM12 colon
[28] = system: SNB-19 CNS
[29] = system: NCI-H522 lung
[30] = system: OVCAR-5 ovarian
[31] = system: 786-0 renal
[32] = system: A498 renal
[33] = system: HT29 colon
[34] = system: HOP-92 NSCLC
[35] = system: M19-MEL melanoma
[36] = system: UACC-257 melanoma
[37] = system: RXF 393 renal
[38] = system: CAKI-1 renal
[39] = system: HCT-15 colon
[40] = system: U251 CNS
[41] = system: SK-OV-3 ovarian
[42] = system: MALME-3M melanoma
[43] = system: SK-MEL-5 melanoma
[44] = system: UO-31 renal
[45] = system: NCI-H23 lung
[46] = system: DLD-1 colon
[47] = system: ACHN renal
[48] = system: EKVX NSCLC
[49] = system: K-562 leukemia
[50] = system: RPMI-8226 leukemia
[51] = system: SF-539 CNS
[52] = system: HOP-18 NSCLC
[53] = system: LOX IMVI melanoma
[54] = system: CCRF-CEM leukemia
[55] = system: OVCAR-3 ovarian
[56] = system: HL-60(TB) leukemia
[57] = system: OVCAR-8 ovarian
[58] = system: DU-145 prostate
[59] = system: NCI/ADR-RES ovarian
[60] = system: BT-549 breast
[61] = system: MDA-N
[62] = system: MDA-MB-231 breast
[63] = system: MCF7 breast
[64] = system: MDA-MB-435
[65] = system: PC-3 prostate
[66] = system: HS 578T breast
[67] = system: T-47D breast
[68] = system: XF 498 CNS

Measured: TGI

CC(=O)OCC1OC(OC2C(COC(C)=O)OC(Sc3ccccc3C)C(OC(C)=O)C2OC(C)=O)C(OC(C)=O)C(OC(C)=O)C1OC(C)=O (stereo not given)
not listed: [53] | [54] | [55] | [56] | [57] | [58] | [59] | [60] | [61] | [62] | [63] | [64] | [65] | [66] | [67] | [68]
> 100 µM: all other assays above

COc1cc2oc(-c3ccccc3)cc(=O)c2c(O)c1C
not listed: [28] | [37] | [52] | [58] | [59] | [60] | [61] | [62] | [63] | [64] | [65] | [66] | [67] | [68]
> 100 µM: all other assays above

Cn1c(=O)c2nc3c(=O)n(C)c(=O)n(CC(N)=O)c3nc2n(C)c1=O
not listed: [1] | [3] | [13] | [15] | [16] | [24] | [26] | [35] | [46] | [52] | [68]
> 100 µM: all other assays above

O=C(N/C(=C\c1cccc([N+](=O)[O-])c1)c1nc2ccccc2[nH]1)c1ccccc1
68.9 µM: [8]
69.4 µM: [44]
87.5 µM: [68]
not listed: [4] | [10] | [37] | [52] | [53] | [56] | [58] | [59] | [60] | [61] | [62] | [63] | [64] | [65] | [66] | [67]
> 100 µM: all other assays above
